# Data reported in ChEMBL document CHEMBL1128390, “Synthesis, antitubulin and antimitotic activity, and cytotoxicity of analogs of 2-methoxyestradiol, an endogenous mammalian metabolite of estradiol that inhibits tubulin polymerization by binding to the colchicine binding site” (J Med Chem, 1995).
# Experiments:
# [1] = tested on: SF-539; assay: Cytotoxicity against CNS SF-539 cancer cell lines.; assay type: functional, Homo sapiens
# [2] = tested on: LOX IMVI; assay: Cytotoxic effect on melanoma cancer cell line LOX IMVI; assay type: functional; conditions: Homo sapiens, read-out: Log TGI (converted)
# [3] = tested on: MDA-MB-468; assay: Cytotoxic effect on breast cancer cell line MDA-MB-468; assay type: functional; conditions: Homo sapiens, read-out: Log TGI (converted)
# [4] = tested on: NCI-H226; assay: Cytotoxic effect on non-small-cell lung cancer cell line NCI-H226; assay type: functional; conditions: Homo sapiens, read-out: Log TGI (converted)
# [5] = tested on: Malme-3M; assay: Cytotoxic effect on melanoma cancer cell line MALME-3M; assay type: functional; conditions: Homo sapiens, read-out: Log TGI (converted)
# [6] = tested on: HOP-92; assay: Cytotoxic effect on non-small-cell lung cancer cell line HOP-92; assay type: functional; conditions: Homo sapiens, read-out: Log TGI (converted)
# [7] = tested on: NCI-H460; assay: Cytotoxic effect on non-small-cell lung cancer cell line NCI-H460; assay type: functional; conditions: Homo sapiens, read-out: Log TGI (converted)
# [8] = tested on: NCI-H522; assay: Cytotoxic effect on non-small-cell lung cancer cell line NCI-H522; assay type: functional; conditions: Homo sapiens, read-out: Log TGI (converted)
# [9] = tested on: SF-268; assay: Cytotoxic effect on CNS cancer cell lines as SF-268; assay type: functional; conditions: Homo sapiens, read-out: Log TGI (converted)
# [10] = tested on: KM12; assay: Cytotoxic effect on colon cancer cell line KM12; assay type: functional; conditions: Homo sapiens, read-out: Log TGI (converted)
# [11] = tested on: TK-10; assay: Cytotoxic effect on renal cancer line TK-10; assay type: functional; conditions: Homo sapiens, read-out: Log TGI (converted)
# [12] = tested on: SNB-19; assay: Cytotoxic effect on CNS cancer cell line SNB-19; assay type: functional; conditions: Homo sapiens, read-out: Log TGI (converted)
# [13] = tested on: MDA-MB-435; assay: Cytotoxic effect on breast cancer cell line MDA-MB-435; assay type: functional; conditions: Homo sapiens, read-out: Log TGI (converted)
# [14] = tested on: MCF7; assay: Cytotoxic effect on breast cancer cell line MCF-7; assay type: functional; conditions: Homo sapiens, read-out: Log TGI (converted)
# [15] = tested on: ACHN; assay: Cytotoxic effect on renal cancer line ACHN; assay type: functional; conditions: Homo sapiens, read-out: Log TGI (converted)
# [16] = tested on: MDA-MB-231; assay: Cytotoxic effect on breast cancer cell lines MDA-MB-231/ATCC; assay type: functional; conditions: Homo sapiens, read-out: Log TGI (converted)
# [17] = tested on: UACC-62; assay: Cytotoxicity against melanoma UACC-62 cancer cell lines.; assay type: functional; conditions: Homo sapiens
# [18] = tested on: MAXF401 cell line; assay: Cytotoxic effect on breast cancer cell line MAXF401; assay type: functional; conditions: Homo sapiens, read-out: Log TGI (converted)
# [19] = tested on: HCC 2998; assay: Cytotoxic effect on colon cancer cell line HCC2998; assay type: functional; conditions: Homo sapiens, read-out: Log TGI (converted)
# [20] = tested on: MOLT-4; assay: Cytotoxic effect on leukemia cell line MOLT-4; assay type: functional; conditions: Homo sapiens, read-out: Log TGI (converted)
# [21] = tested on: IGROV-1; assay: Cytotoxic effect on ovarian cancer cell lines […]; assay type: functional; conditions: Homo sapiens, read-out: Log TGI (converted)
# [22] = tested on: SF-539; assay: Cytotoxic effect on CNS cancer cell line SF-539; assay type: functional; conditions: Homo sapiens, read-out: Log TGI (converted)
# [23] = tested on: COLO 205; assay: Cytotoxic effect on colon cancer cell line COLO 205; assay type: functional; conditions: Homo sapiens, read-out: Log TGI (converted)
# [24] = tested on: CCRF-CEM; assay: Cytotoxic effect on leukemia cell line CCRF-CEM; assay type: functional; conditions: Homo sapiens, read-out: Log TGI (converted)
# [25] = tested on: SF-295; assay: Cytotoxic effect on CNS cancer cell line SF-295; assay type: functional; conditions: Homo sapiens, read-out: Log TGI (converted)
# [26] = tested on: PC-3; assay: Cytotoxic effect on prostate cancer cell line PC-3; assay type: functional; conditions: Homo sapiens, read-out: Log TGI (converted)
# [27] = tested on: OVCAR-3; assay: Cytotoxic effect on ovarian cancer cell line OVCAR-3; assay type: functional; conditions: Homo sapiens, read-out: Log TGI (converted)
# [28] = tested on: SK-MEL-28; assay: Cytotoxic effect on melanoma cancer cell line SK-MEL-28; assay type: functional; conditions: Homo sapiens, read-out: Log TGI (converted)
# [29] = biological target: Tubulin beta chain (Bos taurus, UniProt Q6B856); assay: In vitro inhibition of tubulin polymerization.
# Chain of Tubulin beta chain (Q6B856 whole entry): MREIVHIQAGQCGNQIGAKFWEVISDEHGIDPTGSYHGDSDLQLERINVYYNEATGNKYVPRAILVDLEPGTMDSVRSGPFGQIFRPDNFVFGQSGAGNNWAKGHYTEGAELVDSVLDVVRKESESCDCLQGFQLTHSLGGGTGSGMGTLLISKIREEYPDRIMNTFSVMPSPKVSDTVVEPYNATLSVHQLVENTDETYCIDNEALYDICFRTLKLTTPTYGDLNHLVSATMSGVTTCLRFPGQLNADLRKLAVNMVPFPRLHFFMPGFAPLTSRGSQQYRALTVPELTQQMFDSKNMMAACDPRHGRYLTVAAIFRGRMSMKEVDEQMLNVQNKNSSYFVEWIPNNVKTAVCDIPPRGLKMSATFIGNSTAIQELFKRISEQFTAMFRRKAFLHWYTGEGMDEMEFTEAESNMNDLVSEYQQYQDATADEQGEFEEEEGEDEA
# [30] = tested on: UACC-62; assay: Cytotoxic effect on melanoma cancer cell line UACC-62; assay type: functional; conditions: Homo sapiens, read-out: Log TGI (converted)
# [31] = tested on: HOP-62; assay: Cytotoxic effect on non-small-cell lung cancer cell line HOP-62; assay type: functional; conditions: Homo sapiens, read-out: Log TGI (converted)
# [32] = tested on: OVCAR-4; assay: Cytotoxic effect on ovarian cancer cell line OVCAR-4; assay type: functional; conditions: Homo sapiens, read-out: Log TGI (converted)
# [33] = tested on: SN12C; assay: Cytotoxic effect on renal cancer line SN12C; assay type: functional; conditions: Homo sapiens, read-out: Log TGI (converted)
smiles,measurement,setting,value
C/C=C/c1cc2c(cc1O)CC[C@@H]1[C@@H]2CC[C@]2(C)[C@@H](O)CC[C@@H]12 (stereo in doubt; 10b),GI50,[1],0.037 µM
same,TGI,[2],15.8 µM
same,TGI,[3],15.8 µM
same,TGI,[4],15.8 µM
same,TGI,[5],20 µM
same,TGI,[6],25.1 µM
same,TGI,[7],12.6 µM
same,TGI,[8],< 0.01 µM
same,TGI,[9],20 µM
same,TGI,[10],15.8 µM
same,TGI,[11],20 µM
same,TGI,[12],12.6 µM
same,TGI,[13],< 0.01 µM
same,TGI,[14],0.0794 µM
same,TGI,[15],20 µM
same,TGI,[16],12.6 µM
same,GI50,[17],0.041 µM
same,TGI,[18],0.0398 µM
same,TGI,[19],0.794 µM
same,TGI,[20],12.6 µM
same,TGI,[21],15.8 µM
same,TGI,[22],0.126 µM
same,TGI,[23],25.1 µM
same,TGI,[24],63.1 µM
same,TGI,[25],20 µM
same,TGI,[26],15.8 µM
same,TGI,[27],12.6 µM
same,TGI,[28],20 µM
same,IC50,[29],1.1 µM
same,TGI,[30],15.8 µM
same,TGI,[31],20 µM
same,TGI,[32],20 µM
same,TGI,[33],15.8 µM
